Assay results from PubChem BioAssay (NCI).
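Interpolation was linear, between the two tested concentrations surrounding the appropriate level; five concentrations were tested over 48 hours in 96-well plates. TGI: concentration producing complete growth inhibition.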

What was measured:
Experiment in all cases: NCI anticancer screen, dose series, 48 h
786-0 renal = tested on: 786-0 renal
BT-549 breast = tested on: BT-549 breast
CAKI-1 renal = tested on: CAKI-1 renal
EKVX NSCLC = tested on: EKVX NSCLC
HCC-2998 colon = tested on: HCC-2998 colon
HOP-62 NSCLC = tested on: HOP-62 NSCLC
IGROV1 ovarian = tested on: IGROV1 ovarian
MALME-3M melanoma = tested on: MALME-3M melanoma
MCF7 breast = tested on: MCF7 breast
NCI-H522 lung = tested on: NCI-H522 lung
OVCAR-5 ovarian = tested on: OVCAR-5 ovarian
RPMI-8226 leukemia = tested on: RPMI-8226 leukemia
RXF 393 renal = tested on: RXF 393 renal
SF-268 CNS = tested on: SF-268 CNS
SN12C renal = tested on: SN12C renal
SR leukemia = tested on: SR leukemia
CCRF-CEM leukemia = tested on: CCRF-CEM leukemia
MDA-MB-231 breast = tested on: MDA-MB-231 breast
SNB-75 CNS = tested on: SNB-75 CNS

SMILES	TGI (786-0 renal)	TGI (BT-549 breast)	TGI (CAKI-1 renal)	TGI (EKVX NSCLC)	TGI (HCC-2998 colon)	TGI (HOP-62 NSCLC)	TGI (IGROV1 ovarian)	TGI (MALME-3M melanoma)	TGI (MCF7 breast)	TGI (NCI-H522 lung)	TGI (OVCAR-5 ovarian)	TGI (RPMI-8226 leukemia)	TGI (RXF 393 renal)	TGI (SF-268 CNS)	TGI (SN12C renal)	TGI (SR leukemia)	TGI (CCRF-CEM leukemia)	TGI (MDA-MB-231 breast)	TGI (SNB-75 CNS)
CC[C@H]1C=CCC[C@@]2(C[C@@H]3CC[C@H]4[C@H](C(=O)OCCCCCCCCCCCCCCCC(=O)N(CCCN)C[C@@H](O)CCN)[C@]5(CCC[C@@H](C)O5)NC(=[N+]34)N2)O1	1.86 µM	4.27 µM	1.87 µM	2.66 µM	1.82 µM	2.69 µM	2.02 µM	0.806 µM	1.51 µM	2.72 µM	1.78 µM	0.833 µM	3.42 µM	3.46 µM	2.19 µM	1.23 µM	–	–	–
CCc1ccccc1NC(=O)C(=O)CC(=O)c1sc(Nc2ccccc2Cl)nc1C	90.9 µM	> 100 µM	> 100 µM	> 100 µM	> 100 µM	> 100 µM	> 100 µM	–	45.9 µM	47.5 µM	> 100 µM	65.6 µM	74.2 µM	> 100 µM	> 100 µM	–	58.9 µM	> 100 µM	–
NC(=O)OCc1c(-c2ccccc2)nn(-c2ccccc2)c1COC(N)=O	> 100 µM	> 100 µM	> 100 µM	–	> 100 µM	–	–	> 100 µM	> 100 µM	> 100 µM	> 100 µM	> 100 µM	> 100 µM	> 100 µM	> 100 µM	–	–	> 100 µM	> 100 µM
CC1=CC(=O)/C(=C/n2c(=S)[nH]c3ccc([N+](=O)[O-])cc32)C(=O)O1	> 100 µM	> 100 µM	–	> 100 µM	> 100 µM	> 100 µM	> 100 µM	–	> 100 µM	> 100 µM	> 100 µM	> 100 µM	> 100 µM	> 100 µM	> 100 µM	> 100 µM	> 100 µM	> 100 µM	> 100 µM
CC(=O)CCC[C@H](C)[C@@H](O)[C@@H]1O[C@H]([C@@]2(C)CCC(=O)O2)C[C@H]1C(=O)O	> 100 µM	> 100 µM	> 100 µM	> 100 µM	> 100 µM	> 100 µM	> 100 µM	–	> 100 µM	> 100 µM	> 100 µM	> 100 µM	> 100 µM	> 100 µM	> 100 µM	> 100 µM	> 100 µM	> 100 µM	> 100 µM
O=C(CC(=O)N1N=C(N(c2ccccc2)c2ccccc2)CC1c1ccccc1)Nc1ccccc1 (centres undefined)	> 100 µM	> 100 µM	> 100 µM	> 100 µM	> 100 µM	> 100 µM	> 100 µM	–	> 100 µM	> 100 µM	> 100 µM	> 100 µM	> 100 µM	> 100 µM	–	> 100 µM	> 100 µM	> 100 µM	> 100 µM
COc1ccc(-n2sc3ncc([N+](=O)[O-])cc3c2=O)cc1	> 100 µM	> 100 µM	–	> 100 µM	> 100 µM	> 100 µM	> 100 µM	> 100 µM	> 100 µM	> 100 µM	> 100 µM	> 100 µM	–	> 100 µM	> 100 µM	> 100 µM	> 100 µM	> 100 µM	> 100 µM
C=CCC1C(=O)Nc2cccc3ncn(c23)C1=O (centres undefined)	> 100 µM	> 100 µM	> 100 µM	> 100 µM	–	> 100 µM	> 100 µM	> 100 µM	> 100 µM	–	> 100 µM	> 100 µM	> 100 µM	> 100 µM	> 100 µM	> 100 µM	> 100 µM	> 100 µM	> 100 µM
O=C(OCc1ccccc1)N1CCCc2c(n(S(=O)(=O)c3ccccc3)c3ccccc23)C1	> 100 µM	> 100 µM	> 100 µM	> 100 µM	–	> 100 µM	> 100 µM	> 100 µM	> 100 µM	> 100 µM	> 100 µM	> 100 µM	> 100 µM	> 100 µM	> 100 µM	> 100 µM	–	> 100 µM	–
CC1c2cc(c3c(c2O)CN([C@@H](C)C2CCCCC2)CO3)C(C)c2cc(c3c(c2O)CN([C@@H](C)C2CCCCC2)CO3)C(C)c2cc(c3c(c2O)CN([C@@H](C)C2CCCCC2)CO3)C(C)c2cc1c1c(c2O)CN([C@@H](C)C2CCCCC2)CO1 (some centres undefined)	2.4 µM	3.49 µM	2.95 µM	2.45 µM	2.82 µM	–	2.61 µM	2.98 µM	–	1.58 µM	4.04 µM	2.15 µM	> 100 µM	2.85 µM	2.29 µM	1.44 µM	1.45 µM	2.7 µM	2.77 µM
COC(=O)[C@H](COC(=O)/C=C/c1ccc(OC(C)=O)c(OC(C)=O)c1)NC(=O)/C=C/c1ccc(OC(C)=O)c(OC(C)=O)c1	32.1 µM	34.9 µM	35.1 µM	38.9 µM	36.6 µM	34.3 µM	43 µM	20.7 µM	> 100 µM	–	49.7 µM	> 100 µM	> 100 µM	–	36.4 µM	–	> 100 µM	36.8 µM	30.1 µM
O=C1C=C2CC[C@H]3[C@@H]4CC[C@H](OC(=O)c5cccc6cc7ccccc7nc56)[C@H]4CC[C@@H]3[C@H]2CC1	> 100 µM	> 100 µM	–	> 100 µM	–	> 100 µM	> 100 µM	> 100 µM	> 100 µM	69.2 µM	> 100 µM	> 100 µM	–	> 100 µM	> 100 µM	–	> 100 µM	> 100 µM	> 100 µM
COC(=O)c1ccccc1C1CN=NC12Cc1cc(C)cc(C)c1C2=O (centres undefined)	> 100 µM	> 100 µM	> 100 µM	> 100 µM	> 100 µM	> 100 µM	> 100 µM	> 100 µM	> 100 µM	90 µM	> 100 µM	–	> 100 µM	> 100 µM	> 100 µM	–	> 100 µM	> 100 µM	> 100 µM
CCOC(=O)c1cc2cc(C)cc(C(=O)c3ccc([N+](=O)[O-])cc3)c2[nH]1	> 100 µM	> 100 µM	> 100 µM	> 100 µM	> 100 µM	> 100 µM	> 100 µM	> 100 µM	> 100 µM	> 100 µM	> 100 µM	> 100 µM	> 100 µM	> 100 µM	> 100 µM	–	–	> 100 µM	> 100 µM
Cc1nnc2n1N=C(c1cc(F)c(Cl)cc1Cl)/C(=C/c1ccc3c(c1)OCO3)S2	> 100 µM	> 100 µM	> 100 µM	84.3 µM	> 100 µM	> 100 µM	> 100 µM	> 100 µM	> 100 µM	78.2 µM	> 100 µM	> 100 µM	> 100 µM	> 100 µM	> 100 µM	–	> 100 µM	> 100 µM	–
COc1ccc(C)cc1Nc1nnc(-c2ccc(N)cc2)s1	> 100 µM	> 100 µM	> 100 µM	> 100 µM	> 100 µM	> 100 µM	> 100 µM	> 100 µM	> 100 µM	> 100 µM	> 100 µM	98.4 µM	> 100 µM	> 100 µM	> 100 µM	> 100 µM	> 100 µM	–	> 100 µM
COC(=O)c1ccc(NCC2=CC(=O)C=CC2=O)cc1	7.86 µM	27 µM	7.68 µM	28.2 µM	38.8 µM	–	34.1 µM	13.9 µM	30.8 µM	3.11 µM	32.3 µM	7.22 µM	–	28.8 µM	–	61 µM	–	30.7 µM	30.3 µM
CC1=C[C@@H]2[C@@H](CC(CO)=C[C@H]3[C@@H]4C(C)(C)[C@]4(OCC(C)C)[C@H](OCC(C)C)[C@@H](C)[C@]23O)C1=O	> 6.54 µM	2.65 µM	3.69 µM	> 5.64 µM	1.78 µM	2.8 µM	4.8 µM	2.36 µM	6.89 µM	4.58 µM	8.23 µM	–	3.69 µM	> 8.32 µM	4.22 µM	3.32 µM	8.12 µM	3.39 µM	> 8.32 µM
O=c1c2cc(S(=O)(=O)Nc3c(Cl)cccc3Cl)ccc2ncn1NS(=O)(=O)c1ccc2ccccc2c1	> 62.5 µM	> 62.5 µM	> 62.5 µM	> 62.5 µM	> 62.5 µM	> 62.5 µM	> 62.5 µM	> 62.5 µM	> 62.5 µM	> 62.5 µM	> 62.5 µM	> 62.5 µM	–	> 62.5 µM	> 62.5 µM	> 62.5 µM	> 62.5 µM	> 62.5 µM	> 62.5 µM
O=S(=O)(O)C(Cc1nc2ccccc2[nH]1)S(=O)(=O)OCCC1S(=O)(=O)OCCOS1(=O)=O (centres undefined)	> 100 µM	> 100 µM	> 100 µM	> 100 µM	> 100 µM	> 100 µM	> 100 µM	> 100 µM	> 100 µM	> 100 µM	> 100 µM	> 100 µM	> 100 µM	> 100 µM	> 100 µM	–	> 100 µM	> 100 µM	> 100 µM
CCn1c2ccccc2c2cc(NC(=O)c3c(NCCNCCO)nc(=O)[nH]c3C)ccc21	> 100 µM	> 100 µM	> 100 µM	> 100 µM	> 100 µM	> 100 µM	> 100 µM	> 100 µM	> 100 µM	> 100 µM	> 100 µM	–	> 100 µM	> 100 µM	> 100 µM	–	> 100 µM	> 100 µM	> 100 µM
Cc1ccc(S(=O)(=O)Nn2c(O)c(C#N)c(-c3ccc(N(C)C)cc3)c(C#N)c2=O)cc1	> 50 µM	> 50 µM	> 50 µM	> 50 µM	> 50 µM	> 50 µM	> 50 µM	> 50 µM	> 50 µM	> 50 µM	> 50 µM	43.4 µM	> 50 µM	> 50 µM	> 50 µM	–	> 50 µM	> 50 µM	> 50 µM
N#CC(c1ccccc1)N(CCOCCOCCN(C(=O)c1cccc2ccccc12)C(C#N)c1ccccc1)C(=O)c1cccc2ccccc12 (centres undefined)	> 100 µM	> 100 µM	> 100 µM	> 100 µM	> 100 µM	–	> 100 µM	> 100 µM	> 100 µM	–	> 100 µM	–	> 100 µM	> 100 µM	> 100 µM	–	> 100 µM	> 100 µM	> 100 µM
C#CCCOC(=O)c1ccccc1OC(C)=O	> 100 µM	> 100 µM	> 100 µM	> 100 µM	–	> 100 µM	> 100 µM	–	> 100 µM	> 100 µM	> 100 µM	> 100 µM	> 100 µM	> 100 µM	> 100 µM	> 100 µM	> 100 µM	> 100 µM	> 100 µM
C=C(CN)CO[Si](C)(C)C(C)(C)C	> 100 µM	> 100 µM	> 100 µM	> 100 µM	> 100 µM	> 100 µM	> 100 µM	> 100 µM	> 100 µM	> 100 µM	> 100 µM	> 100 µM	–	> 100 µM	> 100 µM	> 100 µM	> 100 µM	> 100 µM	> 100 µM
